The target of one assay is T1, α1b-AR (Homo sapiens, UniProt P35368).
T1 sequence (P35368 1-520): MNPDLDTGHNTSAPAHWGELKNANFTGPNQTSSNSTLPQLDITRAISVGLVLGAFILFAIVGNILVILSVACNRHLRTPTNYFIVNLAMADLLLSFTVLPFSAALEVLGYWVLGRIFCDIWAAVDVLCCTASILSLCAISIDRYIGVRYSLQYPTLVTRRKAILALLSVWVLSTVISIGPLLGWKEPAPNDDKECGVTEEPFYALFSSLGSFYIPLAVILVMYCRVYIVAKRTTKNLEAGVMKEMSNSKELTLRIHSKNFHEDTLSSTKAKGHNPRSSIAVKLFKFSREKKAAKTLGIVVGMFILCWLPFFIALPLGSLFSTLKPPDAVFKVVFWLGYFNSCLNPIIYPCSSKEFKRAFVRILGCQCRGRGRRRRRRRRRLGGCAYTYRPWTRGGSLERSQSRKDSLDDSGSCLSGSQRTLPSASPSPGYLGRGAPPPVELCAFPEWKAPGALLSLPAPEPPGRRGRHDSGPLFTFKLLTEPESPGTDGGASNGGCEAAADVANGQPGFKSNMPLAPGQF
The assay can be described thus: α1-Adrenergic receptor radio-ligand (125I-HEAT) binding assay, α1b subtype. The note with it: Receptor Binding, Ki α1b-AR, COS-7 cell membranes, 125I-HEAT.

Another assay deals with T2, α1d-AR (Homo sapiens, UniProt P25100).
T2 construct: expressed in transfected cells; host or cells: COS-7
T2 sequence (P25100 1-572): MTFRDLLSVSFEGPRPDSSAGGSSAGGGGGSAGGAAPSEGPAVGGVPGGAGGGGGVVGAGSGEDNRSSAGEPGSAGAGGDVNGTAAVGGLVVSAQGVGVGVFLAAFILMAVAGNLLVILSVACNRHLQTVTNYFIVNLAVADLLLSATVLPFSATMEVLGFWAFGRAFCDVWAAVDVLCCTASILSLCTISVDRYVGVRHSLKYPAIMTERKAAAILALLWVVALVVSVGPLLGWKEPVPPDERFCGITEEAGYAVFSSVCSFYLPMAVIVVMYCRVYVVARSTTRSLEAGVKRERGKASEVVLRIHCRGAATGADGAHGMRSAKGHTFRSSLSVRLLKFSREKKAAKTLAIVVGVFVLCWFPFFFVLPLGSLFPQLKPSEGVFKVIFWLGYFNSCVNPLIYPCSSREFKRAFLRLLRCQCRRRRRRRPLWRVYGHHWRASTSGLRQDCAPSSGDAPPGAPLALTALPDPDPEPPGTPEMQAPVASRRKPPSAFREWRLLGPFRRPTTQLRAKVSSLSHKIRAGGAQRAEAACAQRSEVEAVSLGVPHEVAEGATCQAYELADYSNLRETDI
The assay can be described thus: α1-Adrenergic receptor radio-ligand (125I-HEAT) binding assay, α1d subtype. The procedure: α1-Adrenergic Receptor Binding Assay: Preparation of COS Cell Membranes
Membranes were prepared from COS-7 cells that had been transfected with one of the three α1-AR subtypes by the following method. COS cells from ten 100 mm tissue culture plates were scraped into 5 mL TE (50 mM Tris-HCl, 5 mM EDTA, pH 7.4). The cell suspension was disrupted with a Brinkman Polytron, setting 8, for 10 sec. The disrupted cells were centrifuged at 1000×g for 10 min at 4° C. Supernatants were centrifuged at 34,500×g for 20 min at 4° C. The membrane pellets were suspended in 2 mL TNE (50 mM Tris-HCl, 5 mM EDTA, 150 mM NaCl, pH7.4). An aliquot of the membrane suspension was stored at −70° C. until use. The protein concentration was determined using the BioRad DC protein assay kit following membrane solubilization with Triton X-100.
Radio-Ligand Binding Assay
Triplicate determinations of radio-ligand binding in the presence of increasing: concentrations of testing compound were made. The reagents were added to 96-well polypropylene plate wells using the Biomek 1000 robot (Beckman Instruments). […] The plate was incubated at rt for 1 hr. The contents of the wells were filtered through a GF/C membrane Unifilter plate (Packard Instruments) using the Packard Filtermate cell harvester. The filter plates were dried in a vacuum oven for 30 min at 40° C. 25 μL Microscint 20 liquid scintillation fluid (Packard Instuments) was added to each well. The radioactive content was analyzed in the TopCount microplate scintillation counter (Packard Instruments).

Where [1] appears, read: COS-7 cell membranes, 125I-HEAT, read-out: Receptor Binding, Ki α1d-AR.
Setting [2] is: Receptor Binding, Ki α1d-AR, COS-7 cell membranes, 125I-HEAT.

Consider 20 compounds from patent publication US20060173015A1, “Cyclohexyldiamines as selective alpha 1a/1d adrenoreceptor antagonists for the treatment of benign prostatic hypertrophy and lower urinary tract symptoms” (priority 2004, published 2006).

Like-named read-outs stand apart in the source and are kept apart here.

`CC(C)Oc1ccccc1N1CCN([C@H]2CC[C@@H](NS(=O)(=O)c3cccc(C(F)(F)F)c3)CC2)CC1` [Cpd 2, N-cis-{4-[4-(2-Isopropoxy-phenyl)-piperazin-1-yl]-cyclohexyl}-3-trifluoromethyl-benzenesulfonamide] displayed a Ki at α1b-AR of 276 nM.

On to `CC(C)Oc1ccccc1N1CCN([C@H]2CC[C@@H](NS(=O)(=O)c3ccc(S(C)(=O)=O)cc3)CC2)CC1` [Cpd 6, N-cis-{4-[4-(2-Isopropoxy-phenyl)-piperazin-1-yl]-cyclohexyl}-4-methanesulfonyl-benzenesulfonamide], for which the inhibition constant (Ki) at α1b-AR amounted to 195 nM; at α1d-AR (setting [1]) it was 3.4 nM. Take `COc1ccc(S(=O)(=O)N[C@H]2CC[C@@H](N3CCN(c4ccccc4OC(C)C)CC3)CC2)cc1OC` [Cpd 7, N-cis-{4-[4-(2-Isopropoxy-phenyl)-piperazin-1-yl]-cyclohexyl}-3,4-dimethoxy-benzenesulfonamide]: the Ki amounted to 109 nM on α1b-AR and 1 nM on α1d-AR.

Turning to `COc1ccc(OC)c(S(=O)(=O)N[C@H]2CC[C@@H](N3CCN(c4ccccc4OC(C)C)CC3)CC2)c1` [Cpd 8, N-cis-{4-[4-(2-Isopropoxy-phenyl)-piperazin-1-yl]-cyclohexyl}-2,5-dimethoxy-benzenesulfonamide], the Ki turned out to be 167 nM at α1b-AR and 9.6 nM on α1d-AR (setting [2]). Take `CC(C)Oc1ccccc1N1CCN([C@H]2CC[C@@H](NS(=O)(=O)c3cccc(C(F)(F)F)c3)CC2)CC1` [Cpd 16, N-cis-{4-[4-(2-Isopropoxy-phenyl)-piperazin-1-yl]-cyclohexyl}-3-trifluoromethyl-benzenesulfonamide]: affinity on α1b-AR was put at a Ki of 222 nM. Take `CC(C)Oc1ccccc1N1CCN([C@H]2CC[C@@H](NS(=O)(=O)c3ccccc3F)CC2)CC1` [Cpd 21, 2-Fluoro-N-cis-{4-[4-(2-isopropoxy-phenyl)-piperazin-1-yl]-cyclohexyl}-benzenesulfonamide]: the Ki is 103 nM on α1b-AR and 2.7 nM at α1d-AR (setting [2]). In the case of `CC(C)Oc1ccccc1N1CCN([C@H]2CC[C@@H](NS(=O)(=O)c3cccc(Cl)c3F)CC2)CC1` [Cpd 23, 3-Chloro-2-fluoro-N-cis-{4-[4-(2-isopropoxy-phenyl)-piperazin-1-yl]-cyclohexyl}-benzenesulfonamide], the Ki is 195 nM at α1b-AR and 3 nM at α1d-AR (setting [1]). On to `CC(C)Oc1ccccc1N1CCN([C@H]2CC[C@@H](NS(=O)(=O)c3ccc(Cl)cc3F)CC2)CC1` [Cpd 24, 4-Chloro-2-fluoro-N-cis-{4-[4-(2-isopropoxy-phenyl)-piperazin-1-yl]-cyclohexyl}-benzenesulfonamide], for which the Ki turned out to be 101 nM at α1b-AR and 1.5 nM at α1d-AR.

Consider `CC(C)Oc1ccccc1N1CCN([C@H]2CC[C@@H](NS(=O)(=O)c3ccccc3C#N)CC2)CC1` [Cpd 27, 2-Cyano-N-cis-{4-[4-(2-isopropoxy-phenyl)-piperazin-1-yl]-cyclohexyl}-benzenesulfonamide], for which the Ki on α1b-AR worked out at 217 nM; on α1d-AR (setting [1]), 6.3 nM. Turning to `COc1ccc(Br)cc1S(=O)(=O)N[C@H]1CC[C@@H](N2CCN(c3ccccc3OC(C)C)CC2)CC1` [Cpd 28, 5-Bromo-N-cis-{4-[4-(2-isopropoxy-phenyl)-piperazin-1-yl]-cyclohexyl}-2-methoxy-benzenesulfonamide], the Ki at α1b-AR was found to be 42 nM; on α1d-AR (setting [1]), 0.8 nM. On to `CC(C)Oc1ccccc1N1CCN([C@H]2CC[C@H](NS(=O)(=O)c3cccc(C(F)(F)F)c3)CC2)CC1` [Cpd 30, N-trans-{4-[4-(2-Isopropoxy-phenyl)-piperazin-1-yl]-cyclohexyl}-3-trifluoromethyl-benzenesulfonamide], for which the Ki at α1b-AR turned out to be 204 nM; at α1d-AR (setting [2]) it was 49 nM.

For `CC(C)Oc1ccccc1N1CCN([C@H]2CC[C@H](NS(=O)(=O)c3ccc(S(C)(=O)=O)cc3)CC2)CC1` [Cpd 34, N-trans-{4-[4-(2-Isopropoxy-phenyl)-piperazin-1-yl]-cyclohexyl}-4-methanesulfonyl-benzenesulfonamide], the Ki at α1b-AR is 392 nM; on α1d-AR (setting [1]) it was 22 nM. Regarding `COc1ccc(S(=O)(=O)N[C@H]2CC[C@H](N3CCN(c4ccccc4OC(C)C)CC3)CC2)cc1OC` [Cpd 35, N-trans-{4-[4-(2-Isopropoxy-phenyl)-piperazin-1-yl]-cyclohexyl}-3,4-dimethoxy-benzenesulfonamide], the Ki on α1b-AR worked out at 126 nM; on α1d-AR it was 24 nM.

`COc1ccc(OC)c(S(=O)(=O)N[C@H]2CC[C@H](N3CCN(c4ccccc4OC(C)C)CC3)CC2)c1` [Cpd 36, N-trans-{4-[4-(2-Isopropoxy-phenyl)-piperazin-1-yl]-cyclohexyl}-2,5-dimethoxy-benzenesulfonamide]: the inhibitory constant (Ki) on α1b-AR was 424 nM; at α1d-AR (setting [2]), 56 nM. As to `CC(C)Oc1ccccc1N1CCN([C@H]2CC[C@H](NS(=O)(=O)c3cccc(C(F)(F)F)c3)CC2)CC1` [Cpd 44, N-trans-{4-[4-(2-Isopropoxy-phenyl)-piperazin-1-yl]-cyclohexyl}-3-trifluoromethyl-benzenesulfonamide], the results for the Ki at α1b-AR and on α1d-AR (setting [2]) were 334 nM and 34.7 nM, respectively. As for `CC(C)Oc1ccccc1N1CCN([C@H]2CC[C@H](NS(=O)(=O)c3ccccc3F)CC2)CC1` [Cpd 49, 2-Fluoro-N-trans-{4-[4-(2-isopropoxy-phenyl)-piperazin-1-yl]-cyclohexyl}-benzenesulfonamide], the Ki on α1b-AR is 385 nM; at α1d-AR (setting [2]) it was 30 nM. As to `CC(C)Oc1ccccc1N1CCN([C@H]2CC[C@H](NS(=O)(=O)c3cccc(Cl)c3F)CC2)CC1` [Cpd 51, 3-Chloro-2-fluoro-N-trans-{4-[4-(2-isopropoxy-phenyl)-piperazin-1-yl]-cyclohexyl}-benzenesulfonamide], the Ki was determined as 348 nM at α1b-AR and 24 nM at α1d-AR (setting [1]).

On to `CC(C)Oc1ccccc1N1CCN([C@H]2CC[C@H](NS(=O)(=O)c3ccc(Cl)cc3F)CC2)CC1` [Cpd 52, 4-Chloro-2-fluoro-N-trans-{4-[4-(2-isopropoxy-phenyl)-piperazin-1-yl]-cyclohexyl}-benzenesulfonamide], for which the figures for the Ki at α1b-AR and on α1d-AR were 243 nM and 19 nM, respectively. Regarding `CC(C)Oc1ccccc1N1CCN([C@H]2CC[C@H](NS(=O)(=O)c3ccccc3C#N)CC2)CC1` [Cpd 55, 2-Cyano-N-trans-{4-[4-(2-isopropoxy-phenyl)-piperazin-1-yl]-cyclohexyl}-benzenesulfonamide], the inhibitory constant (Ki) at α1b-AR stood at 31 nM; on α1d-AR (setting [1]), 3.2 nM. For `COc1ccc(Br)cc1S(=O)(=O)N[C@H]1CC[C@H](N2CCN(c3ccccc3OC(C)C)CC2)CC1` [Cpd 56, 5-Bromo-N-trans-{4-[4-(2-isopropoxy-phenyl)-piperazin-1-yl]-cyclohexyl}-2-methoxy-benzenesulfonamide], the Ki at α1b-AR was 131 nM; on α1d-AR (setting [1]), 38 nM.

By Ki is commonly meant the equilibrium dissociation constant of an inhibitor or competing ligand from its target.
